From the supplement of paper PMC10307832

Assays:
Assay in all cases: relative viability (nuclei count vs DMSO), 5 days (fraction); higher = more cells survive
OSI-027 + Foretinib = compound: COc1cccc2cc(-c3nc([C@H]4CC[C@H](C(=O)O)CC4)n4ncnc(N)c34)[nH]c12 [OSI-027] + COc1cc2c(Oc3ccc(NC(=O)C4(C(=O)Nc5ccc(F)cc5)CC4)cc3F)ccnc2cc1OCCCN1CCOCC1 [Foretinib] (partner 0.25 µM)
How it was run: (§1)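 Lung cancer cell lines were seeded in 1536-well plates and dosed by pin tool the next day, with either a single drug or a fixed anchor-drug dose combined with five library-drug doses (not always all listed) spaced in √10 steps. Five days later, one step fixed the cells and stained their nuclei (final 0.05% Triton X-100, 1% formaldehyde, 1 ug/ml Hoechst), and nuclei were counted on 4× images. Relative viability is the nuclei count in treated wells divided by the count in vehicle wells, and each value is the median of duplicate plates.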

Vemurafenib + Alpelisib = compound: CCCS(=O)(=O)Nc1ccc(F)c(C(=O)c2c[nH]c3ncc(-c4ccc(Cl)cc4)cc23)c1F [Vemurafenib] + Cc1nc(NC(=O)N2CCC[C@H]2C(N)=O)sc1-c1ccnc(C(C)(C)C(F)(F)F)c1 [Alpelisib] (partner 2 µM)
How it was run: as §1

OSI-027 + Alpelisib = compound: COc1cccc2cc(-c3nc([C@H]4CC[C@H](C(=O)O)CC4)n4ncnc(N)c34)[nH]c12 [OSI-027] + Cc1nc(NC(=O)N2CCC[C@H]2C(N)=O)sc1-c1ccnc(C(C)(C)C(F)(F)F)c1 [Alpelisib] (partner 2 µM)
How it was run: as §1

Vemurafenib + Navitoclax = compound: CCCS(=O)(=O)Nc1ccc(F)c(C(=O)c2c[nH]c3ncc(-c4ccc(Cl)cc4)cc23)c1F [Vemurafenib] + CC1(C)CCC(c2ccc(Cl)cc2)=C(CN2CCN(c3ccc(C(=O)NS(=O)(=O)c4ccc(N[C@H](CCN5CCOCC5)CSc5ccccc5)c(S(=O)(=O)C(F)(F)F)c4)cc3)CC2)C1 [Navitoclax] (partner 0.5 µM)
How it was run: as §1

Cell Line	relative viability (OSI-027 + Foretinib; first compound 0.01 µM)	relative viability (OSI-027 + Foretinib; first compound 0.03162 µM)	relative viability (OSI-027 + Foretinib; first compound 0.1 µM)	relative viability (OSI-027 + Foretinib; first compound 0.3162 µM)	relative viability (OSI-027 + Foretinib; first compound 1 µM)	relative viability (Vemurafenib + Alpelisib; first compound 0.03162 µM)	relative viability (Vemurafenib + Alpelisib; first compound 0.1 µM)	relative viability (Vemurafenib + Alpelisib; first compound 0.3162 µM)	relative viability (Vemurafenib + Alpelisib; first compound 1 µM)	relative viability (OSI-027 + Alpelisib; first compound 0.01 µM)	relative viability (OSI-027 + Alpelisib; first compound 0.03162 µM)	relative viability (OSI-027 + Alpelisib; first compound 0.1 µM)	relative viability (OSI-027 + Alpelisib; first compound 0.3162 µM)	relative viability (OSI-027 + Alpelisib; first compound 1 µM)	relative viability (Vemurafenib + Navitoclax; first compound 0.03162 µM)	relative viability (Vemurafenib + Navitoclax; first compound 0.1 µM)	relative viability (Vemurafenib + Navitoclax; first compound 0.3162 µM)	relative viability (Vemurafenib + Navitoclax; first compound 1 µM)
NCI-H2342	1.14	0.95	1.05	0.83	0.648													
SW 1573	0.753	0.923	0.713	0.59	0.787	0.769	0.667	0.781	0.551	0.738	0.76	0.661	0.669	0.39	0.927	1.12	1.09	0.934
NCI-H1792						0.624	0.673	0.61	0.693	1.07	0.517	0.623	0.495	0.188	0.565	0.61	0.439	0.593
LOU-NH91	0.924	0.914	0.818	0.8	0.58	0.713	0.487		0.734	0.692	0.689	0.616	0.558	0.47	0.698	0.369		0.759
LC-2-ad	0.826	0.899	0.888	0.765	0.582	0.831	0.557	0.867	0.877	0.886	0.876	0.723	0.74	0.304	0.457	0.422	0.535	0.46
HOP-62	1.19	1.09	1.02	1.14	0.541	1.09	0.954	0.928	0.808	1.13	0.881	0.934	0.81	0.333	0.939	1.12	0.966	1.05
NCI-H650	1.08	1.09	1.01	0.868	0.514	0.954	1.12	0.621	0.781	1.05	1.1	0.749	0.679	0.389				
NCI-H1651	0.732	0.677	0.69	0.653	0.491	0.903	0.831	0.896	0.909	1.1		0.882	0.713	0.559	1.02	0.976	1.07	0.93
CAL-12T	1.16	1.22	1.14	1.13	0.488	1.07	1.21	1.4	1.33	1.28	0.907	1.09	0.954	0.391	1.28	1.2	1.47	1.28
LK-2	1.13	1.2	1.13	0.778	0.195	1.07	1.07	1.22	0.706	1.18	0.835	0.84	0.321	0.165	0.736	0.963	0.753	0.529
EKVX	0.707	0.764	0.74	0.568	0.581	0.821		0.904	0.777	0.731	0.849	0.73	0.625	0.351	0.898		1.03	0.847
EMC-BAC-2	0.898	0.972	0.887	0.745	0.329	0.704	0.657	0.704	0.698	0.723	0.727	0.647	0.558	0.309	1.15	1.01	1.17	1.14
NCI-H520	0.894	0.796	0.59	0.333	0.31	0.979	1.05	0.94	0.793	1.11	0.833	0.701	0.41	0.205	1.04	1.16	1.11	1.15
NCI-H322M	0.942	0.93	0.764	0.654	0.517	0.845		0.872	0.707	0.0629	0.772	0.775	0.539	0.521	1.09		1.44	1.1
COR-L 105	1.22	1.24	0.888	1.29	0.995	0.936		1.11	0.839	1.05	0.85	0.963	0.658	0.524	0.647		0.815	0.841
NCI-H2170	1.1	0.962	0.981	0.965	0.667	0.735	0.301	0.692	0.712	0.856	0.888	0.593	0.688	0.355	0.532	0.251	0.639	0.484
NCI-H358	0.68	0.562	0.699	0.703	0.576	0.872		1.16	0.809	0.98	0.774	0.757	0.478	0.297				
NCI-H1793	0.574	0.557	0.539	0.345	0.166	0.659		0.758	0.808	0.831	0.589	0.466	0.307	0.189	0.389		0.361	0.454
NCI-H2405	1.02	0.968	0.918	0.734	0.537	0.708	0.675		0.785	0.783	0.664	0.577	0.475	0.33	0.836	0.812		0.864
